Among the data in ChEMBL document CHEMBL4376879, “Fragment-to-Lead Medicinal Chemistry Publications in 2018” (J Med Chem, 2020) are IC50 and Kd values, retold here.

pIC50, pKd: −log10 of the molar value. Some results are limits rather than exact numbers.

Test [1] concerns the target Beta-2 adrenergic receptor (Homo sapiens, UniProt P07550). The experiment in a line: Inhibition of beta2 adrenoreceptor (unknown origin).
Test [2] addresses T1, Glycylpeptide N-tetradecanoyltransferase 1 (Homo sapiens, UniProt P30419).
T1 sequence (P30419 whole entry): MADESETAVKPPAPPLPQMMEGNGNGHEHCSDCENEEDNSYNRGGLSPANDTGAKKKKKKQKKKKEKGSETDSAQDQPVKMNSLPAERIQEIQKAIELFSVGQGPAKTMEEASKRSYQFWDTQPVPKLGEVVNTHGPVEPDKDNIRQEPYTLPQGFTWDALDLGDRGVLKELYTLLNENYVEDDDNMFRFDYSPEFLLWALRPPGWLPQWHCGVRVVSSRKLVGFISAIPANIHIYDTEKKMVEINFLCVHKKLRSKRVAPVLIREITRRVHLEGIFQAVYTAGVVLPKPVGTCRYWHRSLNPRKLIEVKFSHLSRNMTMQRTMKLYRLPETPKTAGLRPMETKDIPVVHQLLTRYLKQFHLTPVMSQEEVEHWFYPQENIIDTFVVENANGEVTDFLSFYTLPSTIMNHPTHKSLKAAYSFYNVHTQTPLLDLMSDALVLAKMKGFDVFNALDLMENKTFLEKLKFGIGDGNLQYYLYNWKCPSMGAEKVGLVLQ
The experiment in a line: Inhibition of human N-myristoyltransferase assessed as reduction in CoASH production by fluorogenic detection based assay.

Test [3] concerns the target cAMP and cAMP-inhibited cGMP 3',5'-cyclic phosphodiesterase 10A (Homo sapiens, UniProt Q9Y233). Briefly: Inhibition of human PDE10A2 using cAMP substrate by HTRF assay.
For another test, the target named is GTPase HRas (Homo sapiens, UniProt P01112, G12V). Briefly: Inhibition GST-tagged recombinant HRAS G12V mutant (1 to 166 amino acids) (unknown origin) expressed in Escherichia coli C41(DE3) by SPR assay.
The target in another test is CREB-binding protein (Homo sapiens, UniProt Q92793). The experiment in a line: Binding affinity to Poly-Histidine-tagged CBP (unknown origin) expressed in Escherichia coli BL21(DE3) by competition binding assay.
Chain of CREB-binding protein (Q92793 whole entry): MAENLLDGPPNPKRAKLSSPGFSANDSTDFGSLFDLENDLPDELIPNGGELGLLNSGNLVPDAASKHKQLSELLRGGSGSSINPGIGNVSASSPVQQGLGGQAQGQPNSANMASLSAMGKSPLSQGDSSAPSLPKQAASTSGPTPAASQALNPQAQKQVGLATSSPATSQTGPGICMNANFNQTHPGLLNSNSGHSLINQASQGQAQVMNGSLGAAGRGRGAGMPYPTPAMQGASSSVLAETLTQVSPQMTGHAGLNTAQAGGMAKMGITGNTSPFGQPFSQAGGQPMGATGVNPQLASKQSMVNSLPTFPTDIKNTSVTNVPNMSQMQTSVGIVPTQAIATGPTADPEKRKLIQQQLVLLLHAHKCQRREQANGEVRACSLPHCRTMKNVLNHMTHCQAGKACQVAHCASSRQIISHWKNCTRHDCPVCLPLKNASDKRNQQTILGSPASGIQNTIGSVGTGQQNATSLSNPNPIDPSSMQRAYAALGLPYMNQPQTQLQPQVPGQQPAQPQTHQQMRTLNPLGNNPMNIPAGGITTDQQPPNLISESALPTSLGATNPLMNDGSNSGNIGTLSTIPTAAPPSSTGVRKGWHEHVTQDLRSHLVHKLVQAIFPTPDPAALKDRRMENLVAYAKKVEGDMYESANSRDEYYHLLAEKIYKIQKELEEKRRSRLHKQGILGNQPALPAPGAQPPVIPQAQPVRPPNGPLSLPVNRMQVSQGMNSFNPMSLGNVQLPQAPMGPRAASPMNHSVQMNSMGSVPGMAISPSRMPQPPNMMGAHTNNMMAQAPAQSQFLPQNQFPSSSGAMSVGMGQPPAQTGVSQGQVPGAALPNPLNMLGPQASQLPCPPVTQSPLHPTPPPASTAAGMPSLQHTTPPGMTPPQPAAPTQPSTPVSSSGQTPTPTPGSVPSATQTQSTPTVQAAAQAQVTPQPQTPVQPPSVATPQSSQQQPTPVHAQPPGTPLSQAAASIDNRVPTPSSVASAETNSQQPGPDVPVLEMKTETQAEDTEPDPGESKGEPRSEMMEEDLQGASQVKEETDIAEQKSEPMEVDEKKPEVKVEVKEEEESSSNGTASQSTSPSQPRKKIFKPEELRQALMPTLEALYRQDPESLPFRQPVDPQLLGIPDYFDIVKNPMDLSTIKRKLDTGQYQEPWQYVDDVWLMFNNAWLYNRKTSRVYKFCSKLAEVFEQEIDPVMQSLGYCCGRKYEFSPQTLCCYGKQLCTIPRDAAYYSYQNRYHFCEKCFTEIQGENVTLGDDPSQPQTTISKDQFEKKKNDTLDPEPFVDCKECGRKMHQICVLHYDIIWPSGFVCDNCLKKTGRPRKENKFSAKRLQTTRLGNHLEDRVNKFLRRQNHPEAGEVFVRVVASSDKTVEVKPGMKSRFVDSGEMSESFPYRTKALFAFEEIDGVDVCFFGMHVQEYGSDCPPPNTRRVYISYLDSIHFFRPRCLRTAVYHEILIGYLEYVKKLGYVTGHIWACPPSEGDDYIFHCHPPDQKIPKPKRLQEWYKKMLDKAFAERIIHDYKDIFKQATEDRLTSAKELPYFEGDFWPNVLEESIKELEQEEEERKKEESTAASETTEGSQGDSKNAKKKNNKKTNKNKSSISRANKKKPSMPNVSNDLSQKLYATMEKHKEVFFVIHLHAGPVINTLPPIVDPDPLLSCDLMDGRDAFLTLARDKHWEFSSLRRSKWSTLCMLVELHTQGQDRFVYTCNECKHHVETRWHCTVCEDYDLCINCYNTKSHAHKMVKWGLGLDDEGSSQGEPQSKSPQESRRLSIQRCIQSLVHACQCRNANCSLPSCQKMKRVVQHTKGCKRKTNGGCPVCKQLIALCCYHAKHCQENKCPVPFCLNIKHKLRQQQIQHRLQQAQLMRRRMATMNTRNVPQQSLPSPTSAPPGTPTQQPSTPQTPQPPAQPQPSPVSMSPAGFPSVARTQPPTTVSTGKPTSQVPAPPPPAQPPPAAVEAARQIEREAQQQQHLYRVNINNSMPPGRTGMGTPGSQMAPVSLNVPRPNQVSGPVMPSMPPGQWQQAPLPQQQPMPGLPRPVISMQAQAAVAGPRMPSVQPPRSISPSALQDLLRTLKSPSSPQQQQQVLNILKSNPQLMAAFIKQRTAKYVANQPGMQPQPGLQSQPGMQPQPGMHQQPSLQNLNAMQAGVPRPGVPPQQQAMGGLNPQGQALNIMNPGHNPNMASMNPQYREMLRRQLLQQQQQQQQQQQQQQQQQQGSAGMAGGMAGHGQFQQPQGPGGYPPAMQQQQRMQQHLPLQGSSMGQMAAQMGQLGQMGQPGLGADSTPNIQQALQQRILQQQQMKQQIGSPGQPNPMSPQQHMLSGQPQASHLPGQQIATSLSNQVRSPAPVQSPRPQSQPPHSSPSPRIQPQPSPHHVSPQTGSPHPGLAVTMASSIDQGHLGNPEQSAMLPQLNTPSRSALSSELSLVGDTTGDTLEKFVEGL

Chain of Beta-2 adrenergic receptor (P07550 whole entry): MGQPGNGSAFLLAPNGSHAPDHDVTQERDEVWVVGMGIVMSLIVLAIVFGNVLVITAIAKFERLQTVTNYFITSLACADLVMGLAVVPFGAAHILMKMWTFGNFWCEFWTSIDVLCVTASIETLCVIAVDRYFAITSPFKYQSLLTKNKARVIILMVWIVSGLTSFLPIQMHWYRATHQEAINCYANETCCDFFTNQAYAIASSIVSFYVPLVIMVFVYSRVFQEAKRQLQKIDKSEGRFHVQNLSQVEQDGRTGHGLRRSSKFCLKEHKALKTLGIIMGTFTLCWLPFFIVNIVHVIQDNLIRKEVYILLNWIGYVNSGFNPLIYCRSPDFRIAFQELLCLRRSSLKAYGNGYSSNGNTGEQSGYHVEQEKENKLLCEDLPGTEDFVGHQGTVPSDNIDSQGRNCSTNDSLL
Chain of GTPase HRas (P01112 whole entry G12V, the tested form may be a part): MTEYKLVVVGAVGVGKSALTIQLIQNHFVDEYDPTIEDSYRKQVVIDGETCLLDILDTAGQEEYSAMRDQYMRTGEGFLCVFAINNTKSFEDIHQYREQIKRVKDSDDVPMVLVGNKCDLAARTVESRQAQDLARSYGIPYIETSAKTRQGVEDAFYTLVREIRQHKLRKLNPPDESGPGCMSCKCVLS
Chain of cAMP and cAMP-inhibited cGMP 3',5'-cyclic phosphodiesterase 10A (Q9Y233 whole entry, the tested form may be a part): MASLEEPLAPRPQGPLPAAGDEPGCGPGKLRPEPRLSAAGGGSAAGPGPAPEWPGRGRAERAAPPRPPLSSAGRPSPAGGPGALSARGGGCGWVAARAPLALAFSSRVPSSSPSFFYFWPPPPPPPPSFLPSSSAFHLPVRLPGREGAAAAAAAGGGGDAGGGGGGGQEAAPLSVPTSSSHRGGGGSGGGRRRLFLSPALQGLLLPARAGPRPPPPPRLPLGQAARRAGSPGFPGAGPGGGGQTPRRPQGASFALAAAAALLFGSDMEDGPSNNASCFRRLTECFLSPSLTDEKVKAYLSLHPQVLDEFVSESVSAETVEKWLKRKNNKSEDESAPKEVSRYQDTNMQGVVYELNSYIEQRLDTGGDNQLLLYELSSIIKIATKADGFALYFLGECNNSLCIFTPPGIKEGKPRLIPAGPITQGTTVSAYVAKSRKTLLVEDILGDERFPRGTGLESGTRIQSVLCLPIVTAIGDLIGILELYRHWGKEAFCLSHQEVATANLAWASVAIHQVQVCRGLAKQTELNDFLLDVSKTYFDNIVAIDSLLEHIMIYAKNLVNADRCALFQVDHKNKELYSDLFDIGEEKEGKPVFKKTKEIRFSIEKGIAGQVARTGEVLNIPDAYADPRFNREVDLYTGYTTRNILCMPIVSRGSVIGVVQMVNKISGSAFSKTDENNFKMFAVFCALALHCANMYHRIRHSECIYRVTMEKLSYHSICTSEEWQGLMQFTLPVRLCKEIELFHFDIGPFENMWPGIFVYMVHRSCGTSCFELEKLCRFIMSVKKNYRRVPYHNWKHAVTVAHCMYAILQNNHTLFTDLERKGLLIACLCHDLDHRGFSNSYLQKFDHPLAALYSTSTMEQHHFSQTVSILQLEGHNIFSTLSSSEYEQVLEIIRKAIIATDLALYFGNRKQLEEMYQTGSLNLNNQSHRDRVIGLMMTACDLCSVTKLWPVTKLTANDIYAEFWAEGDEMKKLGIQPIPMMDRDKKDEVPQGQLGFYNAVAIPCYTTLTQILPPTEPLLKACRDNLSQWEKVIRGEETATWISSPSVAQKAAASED

In turn, `NCc1ccc(-c2ncccn2)cc1` showed a pIC50 in test [1] of 5.00.

Turning to `Cc1nn(C)c(C)c1CCOc1c(-c2ccc3c(c2)c(CN(C)C)nn3C)ccc(F)c1F`, the pIC50 in test [2] was above 9.00.

In turn, `Cc1cc2nccc(-c3ccc(Cl)cc3)n2n1` showed a pIC50 in test [3] above 5.00.

Take `COc1nc(-c2cccc3c2OCCO3)ccc1Nc1ccc(CN(C)C)cc1`: at GTPase HRas, the pKd was 7.29.

`CCOc1ccc(C(C)=O)cc1N` had a pKd at CREB-binding protein of 4.28.

Compound `Clc1ccc(CNCc2ccc(-c3ncccn3)cc2)cc1Cl` gave a pIC50 in test [1] above 9.00.

As for `O=C(Nc1ccc2ccccc2n1)c1ccco1`, the pKd on GTPase HRas is below 3.43.
